From patent US20060128792A1, “Deguelin as a chemopreventive agent for lung cancer” (priority 2002, published 2006)
Where “and” joins values, the source holds several entries; their conditions need not be identical. Identical values can stand only once.

What was measured:
Assay in all cases: MTT assay, growth inhibition by deguelin or deguelin derivatives
Type in all cases: cell-based
Details in all cases: 3 days
H1299 = test system: H1299
H596 = test system: H596
H460 = test system: H460
H358 = test system: H358
A549 = test system: A549
H322 = test system: H322

COc1cc2c(cc1OC)-c1c(oc3c4c(ccc3c1=O)OC(C)(C)C=C4)CO2 [7a,13a-dehydrodeguelin]
% control (H1299; H1299, 0.01 μM): 0.93% | MTT assay reading, Average (H1299; H1299, 0.01 μM): 1.3179 | MTT assay reading, individual replicate (H1299; H1299, 0.01 μM): 1.311 and 1.344 and 1.402 and 1.302 and 1.286 and 1.293 and 1.287 | % control (H1299; H1299, 0.1 μM): 0.87% | MTT assay reading, Average (H1299; H1299, 0.1 μM): 1.2374 | MTT assay reading, individual replicate (H1299; H1299, 0.1 μM): 1.228 and 1.331 and 1.318 and 1.141 and 1.196 and 1.153 and 1.295 | % control (H1299; H1299, 0.5 μM): 0.69% | MTT assay reading, Average (H1299; H1299, 0.5 μM): 0.9707 | MTT assay reading, individual replicate (H1299; H1299, 0.5 μM): 1.033 and 1.017 and 1.106 and 0.913 and 0.874 and 0.947 and 0.905 | % control (H1299; H1299, 1 μM): 0.60% | MTT assay reading, Average (H1299; H1299, 1 μM): 0.8452 | MTT assay reading, individual replicate (H1299; H1299, 1 μM): 0.769 and 0.838 and 0.938 and 0.813 and 0.837 and 0.876 | MTT assay reading, Average (H596; H596, 0.01 μM): 1.4338 | MTT assay reading, individual replicate (H596; H596, 0.01 μM): 1.408 and 1.317 and 1.526 and 1.458 and 1.495 and 1.399 | MTT assay reading, Average (H596; H596, 0.1 μM): 1.2779 | MTT assay reading, individual replicate (H596; H596, 0.1 μM): 1.356 and 1.281 and 1.153 and 1.273 and 1.246 and 1.358 and 1.278 | MTT assay reading, Average (H596; H596, 0.5 μM): 1.2116 | MTT assay reading, individual replicate (H596; H596, 0.5 μM): 1.19 and 1.194 and 1.071 and 1.133 and 1.285 and 1.365 and 1.243 | MTT assay reading, Average (H596; H596, 1 μM): 1.0616 | MTT assay reading, individual replicate (H596; H596, 1 μM): 1.202 and 1.183 and 1.019 and 1.159 and 1.07 and 0.899 (2×) | % control (H460; H460, 0.01 μM): 0.86% | MTT assay reading, Average (H460; H460, 0.01 μM): 1.4779 | MTT assay reading, individual replicate (H460; H460, 0.01 μM): 1.531 and 1.338 and 1.635 and 1.354 and 1.477 and 1.476 and 1.534 | % control (H460; H460, 0.1 μM): 0.88% | MTT assay reading, Average (H460; H460, 0.1 μM): 1.5079 | MTT assay reading, individual replicate (H460; H460, 0.1 μM): 1.473 and 1.427 and 1.518 and 1.504 and 1.524 and 1.575 and 1.534 | % control (H460; H460, 0.5 μM): 0.78% | MTT assay reading, Average (H460; H460, 0.5 μM): 1.3309 | MTT assay reading, individual replicate (H460; H460, 0.5 μM): 1.297 and 1.323 and 1.388 and 1.304 and 1.362 and 1.335 and 1.307 | % control (H460; H460, 1 μM): 0.64% | MTT assay reading, Average (H460; H460, 1 μM): 1.1053 | MTT assay reading, individual replicate (H460; H460, 1 μM): 1.191 and 1.216 and 1.047 and 1.094 and 0.946 and 1.108 and 1.135 | MTT assay reading, Average (H358; H358, 0.01 μM): 0.7673 | MTT assay reading, individual replicate (H358; H358, 0.01 μM): 0.79 and 0.678 and 0.647 and 0.812 and 0.791 and 0.864 and 0.789 | MTT assay reading, Average (H358; H358, 0.1 μM): 0.769 | MTT assay reading, individual replicate (H358; H358, 0.1 μM): 0.726 and 0.676 and 0.824 and 0.846 and 0.782 and 0.658 and 0.871 | MTT assay reading, Average (H358; H358, 0.5 μM): 0.719 | MTT assay reading, individual replicate (H358; H358, 0.5 μM): 0.684 and 0.6 and 0.66 and 0.739 and 0.819 and 0.753 and 0.778 | MTT assay reading, Average (H358; H358, 1 μM): 0.6534 | MTT assay reading, individual replicate (H358; H358, 1 μM): 0.691 and 0.548 and 0.643 and 0.706 and 0.647 and 0.656 and 0.683 | MTT assay reading, Average (A549; A549, 0.01 μM): 1.2597 | MTT assay reading, individual replicate (A549; A549, 0.01 μM): 1.182 and 1.147 and 1.307 and 1.208 and 1.279 and 1.361 and 1.334 | MTT assay reading, Average (A549; A549, 0.1 μM): 1.1816 | MTT assay reading, individual replicate (A549; A549, 0.1 μM): 1.073 and 1.17 and 1.208 and 1.308 and 1.211 and 1.152 and 1.149 | MTT assay reading, Average (A549; A549, 0.5 μM): 1.0421 | MTT assay reading, individual replicate (A549; A549, 0.5 μM): 1.107 and 1.032 and 0.931 and 0.964 and 1.036 and 1.104 and 1.121 | MTT assay reading, Average (A549; A549, 1 μM): 0.9223 | MTT assay reading, individual replicate (A549; A549, 1 μM): 0.97 and 0.971 and 1.014 and 0.89 and 0.862 and 0.886 and 0.863 | MTT assay reading, Average (H322; H322, 0.01 μM): 1.0041 | MTT assay reading, individual replicate (H322; H322, 0.01 μM): 0.921 and 1.08 and 1.05 and 1.022 and 0.888 and 0.926 and 1.142 | MTT assay reading, Average (H322; H322, 0.1 μM): 1.0019 | MTT assay reading, individual replicate (H322; H322, 0.1 μM): 1.04 and 1.033 and 0.923 and 1.031 and 1.09 and 0.883 and 1.013 | MTT assay reading, Average (H322; H322, 0.5 μM): 0.866 | MTT assay reading, individual replicate (H322; H322, 0.5 μM): 0.837 and 0.8 and 0.975 and 0.926 and 0.806 and 0.811 and 0.907 | MTT assay reading, Average (H322; H322, 1 μM): 0.8379 | MTT assay reading, individual replicate (H322; H322, 1 μM): 0.841 and 0.799 and 0.822 and 0.932 and 0.793 and 0.709 and 0.969

C=C(C)[C@H]1Cc2c(ccc3c(=O)c4c(oc23)COc2cc(OC)c(OC)cc2-4)O1 [6a,2a-dehydrorotenone]
% control (H1299; H1299, 0.01 μM): 0.99% | MTT assay reading, Average (H1299; H1299, 0.01 μM): 1.5514 | MTT assay reading, individual replicate (H1299; H1299, 0.01 μM): 1.562 and 1.561 and 1.559 and 1.63 and 1.515 and 1.517 and 1.516 | % control (H1299; H1299, 0.1 μM): 0.89% | MTT assay reading, Average (H1299; H1299, 0.1 μM): 1.3907 | MTT assay reading, individual replicate (H1299; H1299, 0.1 μM): 1.39 and 1.308 and 1.385 and 1.539 and 1.281 and 1.351 and 1.481 | % control (H1299; H1299, 0.5 μM): 0.95% | MTT assay reading, Average (H1299; H1299, 0.5 μM): 1.4937 | MTT assay reading, individual replicate (H1299; H1299, 0.5 μM): 1.544 and 1.561 and 1.338 and 1.502 and 1.595 and 1.413 and 1.503 | % control (H1299; H1299, 1 μM): 0.89% | MTT assay reading, Average (H1299; H1299, 1 μM): 1.3961 | MTT assay reading, individual replicate (H1299; H1299, 1 μM): 1.452 and 1.321 and 1.233 and 1.57 and 1.421 and 1.33 and 1.446 | MTT assay reading, Average (H596; H596, 0.01 μM): 1.6089 | MTT assay reading, individual replicate (H596; H596, 0.01 μM): 1.581 and 1.597 and 1.651 and 1.605 and 1.631 and 1.617 and 1.58 | MTT assay reading, Average (H596; H596, 0.1 μM): 1.399 | MTT assay reading, individual replicate (H596; H596, 0.1 μM): 1.347 and 1.381 and 1.333 and 1.513 and 1.417 and 1.34 and 1.462 | MTT assay reading, Average (H596; H596, 0.5 μM): 1.4016 | MTT assay reading, individual replicate (H596; H596, 0.5 μM): 1.343 and 1.467 and 1.312 and 1.463 and 1.351 and 1.399 and 1.476 | MTT assay reading, Average (H596; H596, 1 μM): 1.3214 | MTT assay reading, individual replicate (H596; H596, 1 μM): 1.234 and 1.257 and 1.341 and 1.494 and 1.326 and 1.319 and 1.279 | % control (H460; H460, 0.01 μM): 0.96% | MTT assay reading, Average (H460; H460, 0.01 μM): 1.6774 | MTT assay reading, individual replicate (H460; H460, 0.01 μM): 1.625 and 1.563 and 1.731 and 1.89 and 1.443 and 1.675 and 1.815 | % control (H460; H460, 0.1 μM): 0.78% | MTT assay reading, Average (H460; H460, 0.1 μM): 1.3666 | MTT assay reading, individual replicate (H460; H460, 0.1 μM): 1.314 (2×) and 1.333 and 1.204 and 1.501 and 1.379 and 1.521 | % control (H460; H460, 0.5 μM): 0.85% | MTT assay reading, Average (H460; H460, 0.5 μM): 1.49 | MTT assay reading, individual replicate (H460; H460, 0.5 μM): 1.31 and 1.421 and 1.538 and 1.504 and 1.55 and 1.534 and 1.573 | % control (H460; H460, 1 μM): 0.79% | MTT assay reading, Average (H460; H460, 1 μM): 1.382 | MTT assay reading, individual replicate (H460; H460, 1 μM): 1.253 and 1.353 and 1.351 and 1.347 and 1.429 and 1.319 and 1.622 | MTT assay reading, Average (H358; H358, 0.01 μM): 0.8861 | MTT assay reading, individual replicate (H358; H358, 0.01 μM): 0.784 and 0.734 and 0.786 and 0.686 and 0.95 and 1.192 and 1.071 | MTT assay reading, Average (H358; H358, 0.1 μM): 0.7511 | MTT assay reading, individual replicate (H358; H358, 0.1 μM): 0.602 and 0.652 and 0.603 and 0.672 and 0.792 and 0.778 and 1.159 | MTT assay reading, Average (H358; H358, 0.5 μM): 0.6756 | MTT assay reading, individual replicate (H358; H358, 0.5 μM): 0.533 and 0.604 and 0.6 and 0.736 and 0.633 and 0.734 and 0.889 | MTT assay reading, Average (H358; H358, 1 μM): 0.684 | MTT assay reading, individual replicate (H358; H358, 1 μM): 0.686 and 0.624 and 0.639 and 0.64 and 0.667 and 0.752 and 0.78 | MTT assay reading, Average (A549; A549, 0.01 μM): 1.7067 | MTT assay reading, individual replicate (A549; A549, 0.01 μM): 1.69 (2×) and 1.705 and 1.541 and 1.829 and 1.786 and 1.706 | MTT assay reading, Average (A549; A549, 0.1 μM): 1.4161 | MTT assay reading, individual replicate (A549; A549, 0.1 μM): 0.691 and 1.805 and 1.719 and 1.454 and 1.375 (2×) and 1.494 | MTT assay reading, Average (A549; A549, 0.5 μM): 1.4871 | MTT assay reading, individual replicate (A549; A549, 0.5 μM): 1.531 and 1.925 and 1.594 and 1.387 and 1.359 and 1.356 and 1.258 | MTT assay reading, Average (A549; A549, 1 μM): 1.4281 | MTT assay reading, individual replicate (A549; A549, 1 μM): 1.544 and 1.458 and 1.375 and 1.486 and 1.428 and 1.464 and 1.242 | MTT assay reading, Average (H322; H322, 0.01 μM): 0.969 | MTT assay reading, individual replicate (H322; H322, 0.01 μM): 0.795 and 0.799 and 0.893 and 0.989 and 1.014 and 1.101 and 1.192 | MTT assay reading, Average (H322; H322, 0.1 μM): 0.8656 | MTT assay reading, individual replicate (H322; H322, 0.1 μM): 0.865 and 0.771 and 0.799 and 0.872 and 0.866 and 0.909 and 0.977 | MTT assay reading, Average (H322; H322, 0.5 μM): 0.828 | MTT assay reading, individual replicate (H322; H322, 0.5 μM): 0.736 and 0.809 and 0.833 and 0.746 and 0.89 and 0.958 and 0.824 | MTT assay reading, Average (H322; H322, 1 μM): 0.7213 | MTT assay reading, individual replicate (H322; H322, 1 μM): 0.677 and 0.658 and 0.692 and 0.681 and 0.68 and 0.859 and 0.802
